Measurements taken from US11767295B2, “Isoindole derivative” (TIANJIN HEMAY PHARMACEUTICAL CO., LTD., priority 2018, dated 2023).

Columns and labels:
Assay type in all cases: in vivo
[1] = test system: Phorbol ester (TPA)-induced ear swelling in mice; assay: Inhibition of phorbol ester (TPA)-induced ear swelling in mice (Biological Example 5); settings: ICR mice, 5 hours after TPA modeling; for Ear Swelling Rate / Inhibitory Rate of Ear Swelling Degree: 2 mg/mouse on right ear; for Ear Swelling Rate: (right−left)/left ear weight; for Inhibitory Rate of Ear Swelling Degree: vs model and blank control; for Ear Swelling Degree: 50 mg/mL in acetone, 40 μL in 2 administrations (2 mg/mouse)
Protocol: 72 male ICR mice were selected and divided into 9 groups. There were 8 mice in each group.
Before the test, the animals were grouped and the hair around the right ear of the mice was removed.
20 μL of respective drug was applied to the animals in each test group (a blank solvent was applied to the model control group). Modeling and induction were carried out after 1 h 10 min. Except for the blank group, 20 μL of TPA at a concentration of 125 μg/mL were applied to the right ears of the animals for induction. After induction for 10 minutes, 20 μL of respective drug were applied to the right ears of the animals in each test group (a blank solvent was applied to the model control group).
After modeling for 5 hours, ear pieces of both sides on the same location of animals in each group were taken with a punch and weighed to calculate the ear swelling degree, ear swelling rate and inhibitory rate.
The ear swelling degree and ear swelling rate after modeling and administration for 5 hours were analyzed and tested with One-Way ANOVA multiple-group test index in SPSS17.0. P<0.05 indicated there were statistical differences. Ear swelling degree (mg)=right ear weight (mg)−left ear weight (mg); Ear swelling rate (%)=(right ear weight−left ear weight)/left ear weight×100%; Inhibitory rate of ear swelling degree (%)=1−(ear swelling degree of drug administration group−ear swelling degree of blank control group)/(ear swelling degree of model control group−ear swelling degree of blank control group)×100%.

[2] = test system: DNCB-induced atopic dermatitis in Balb/c mice; assay: Efficacy evaluation test of DNCB-induced atopic dermatitis in Balb/c mice model (Biological Example 1); settings: BID × 10
Protocol: 60 healthy male SPF Balb/c mice, each of which the body weight was 19-21 g, were randomly divided into 6 groups by body weight. There were 10 mice in each group.
(§1) Before the test, the hair around the right ear of the mouse was removed to reduce the interference in the drug adhesion to the hair.
(§2) The start of the test was recorded as Day 1. The specific time for measuring ear thickness was slightly adjusted based on FIG. 1. After the end of the 18th day of the test, blood was taken from each animal to detect the concentration of immunoglobulin (IgE) in the serum (in accordance with the kit instructions). Both ears of the animal were cut off. Ear pieces were cut by an 8 mm punch at the fixed position of the ears and weighed. Differences in the swelling degrees of two ears were calculated.
The changes in mouse ear thickness and the ear weights of the same area and the IgE concentrations in the serum among different groups on the 18th day were analyzed and compared statistically with One-Way Anova in SPSS 17, respectively. The G test method was used to delete outliers. p<0.05 indicated there were statistical differences. Ear swelling degree (mg)=right ear weight (mg)−left ear weight (mg); Ear thickness change (mm)=right ear thickness (mm)−left ear thickness (mm); Inhibitory rate of ear swelling degree (%)=1−(ear swelling degree of drug administration group−ear swelling degree of blank control group)/(ear swelling degree of model control group−ear swelling degree of blank control group)×100%; Inhibitory rate of ear thickness change (%)=1−(ear thickness change of drug administration group−ear thickness change of blank control group)/(ear thickness change of model control group−ear thickness change of blank control group)×100%; Inhibitory rate of IgE (%)=1−(IgE concentration in administration group−IgE concentration in blank control group)/(IgE concentration in model control group−IgE concentration in blank control group)×100%.

[3] = test system: DNCB-induced atopic dermatitis in Balb/c mice; assay: Efficacy evaluation test of DNCB-induced atopic dermatitis in Balb/c mice model (Biological Example 2); settings: BID × 10; for Inhibitory Rate of Ear Swelling / Weight Changes of Animals, Day 10 / Weight Changes of Animals, Day 17 / Weight Changes of Animals, Day 18 / Ear Swelling Degree / IgE Concentration / Inhibitory Rate of IgE Concentration: 1 mg/mouse on ear; for Inhibitory Rate of Ear Swelling / Ear Swelling Degree / IgE Concentration / Inhibitory Rate of IgE Concentration: 18th day; for Inhibitory Rate of Ear Swelling / Inhibitory Rate of IgE Concentration: vs model and blank control; for Weight Changes of Animals, Day 1 / Weight Changes of Animals, Day 10 / Weight Changes of Animals, Day 17 / Weight Changes of Animals, Day 18: Balb/c mice, Mean ± S.D.; for Weight Changes of Animals, Day 1: 1 mg/mouse (50 mg/mL, 20 μL) on ear; for Ear Swelling Degree: right minus left ear piece weight; for IgE Concentration / Inhibitory Rate of IgE Concentration: serum
Protocol: 70 healthy male SPF Balb/c mice, each of which the weight was 19-21 g, were randomly divided into 7 groups by body weight. There were 10 mice in each group.
as §1
as §2, with “Day” for “Day 1. The specific time for measuring ear thickness was slightly adjusted based on FIG.”
The IgE concentrations in the serum of different groups on the 18th day were analyzed and compared statistically with One-Way Anova in SPSS 17, respectively. The G test method was used to delete outliers. p<0.05 indicated there were statistical differences. Ear swelling degree (mg)=right ear weight (mg)−left ear weight (mg); Inhibitory rate of ear swelling degree (%)=1−(ear swelling degree of drug administration group−ear swelling degree of blank control group)/(ear swelling degree of model control group−ear swelling degree of blank control group)×100%; Inhibitory rate of IgE (%)=1−(IgE concentration in administration group−IgE concentration in blank control group)/(IgE concentration in model control group−IgE concentration in blank control group)×100%.

[4] = Balb/c mice, 1 mg/mouse on ear, Day 10, Mean ± S.D.
[5] = Balb/c mice, 1 mg/mouse on ear, Day 17, Mean ± S.D.
[6] = Balb/c mice, 1 mg/mouse on ear, Day 18, Mean ± S.D.

Row | Weight Changes of Animals, Day 1 [3] [g] | Weight Changes of Animals, Day 10 [3] [g] | Weight Changes of Animals, Day 17 [3] [g] | Weight Changes of Animals, Day 18 [3] [g] | Compound | Ear Swelling Rate [1] [%] | Inhibitory Rate of Ear Swelling Degree [1] [%] | Ear Swelling Degree [1] [mg] | Inhibitory Rate of Ear Swelling [3] [%] | Ear Swelling Degree [3] [mg] | IgE Concentration [3] [ng/mL] | Inhibitory Rate of IgE Concentration [3] [%] | also measured
1 | 21.4 ± 0.7 | 22.8 ± 1.4 | 23.3 ± 1.4 | 22.7 ± 1.5 | CCOC(=O)CC(c1ccc(OC)c(OCC)c1)N1C(=O)c2cccc(NC(C)=O)c2C1=O (stereo not drawn) [Example 6, ethyl 3-(4-acetamido-1,3-dioxoisoindolin-2-yl)-3-(3-ethoxy-4-methoxyphenyl)propionate] | 36.4 ± 11.9 | 87.3 | 5.1 ± 1.6 | 41.7 | 17.1 ± 4.0 | 5871.9 ± 2973.8 | 32.8 | –
2 | 21.8 ± 0.7 | 22.8 ± 1.2 | 23.1 ± 1.1 | 22.9 ± 1.3 | CCOC(=O)C[C@H](c1ccc(OC)c(OCC)c1)N1C(=O)c2cccc(NC(C)=O)c2C1=O [Example 51, ethyl (R)-3-(4-acetamido-1,3-dioxoisoindolin-2-yl)-3-(3-ethoxy-4-methoxyphenyl)propionate] | – | – | – | 25.0 | 21.7 ± 4.5 | 6599.5 ± 2996.0 | 23.3 | –

The next lines start with the compound.

Row | Compound | Weight Changes of Animals, Day 1 [3] [g] | Weight Changes of Animals, Day 10 [3] [g] | Weight Changes of Animals, Day 17 [3] [g] | Weight Changes of Animals, Day 18 [3] [g] | Ear Swelling Rate [1] [%] | Inhibitory Rate of Ear Swelling Degree [1] [%] | Ear Swelling Degree [1] [mg] | Inhibitory Rate of Ear Swelling [3] [%] | Ear Swelling Degree [3] [mg] | IgE Concentration [3] [ng/mL] | Inhibitory Rate of IgE Concentration [3] [%] | also measured
3 | CCOc1cc(C(CC(=O)OC)N2C(=O)c3ccc(NC(C)=O)cc3C2=O)ccc1OC (stereo not drawn) [Example 25, methyl 3-(5-acetamido-1,3-dioxoisoindolin-2-yl)-3-(3-ethoxy-4-methoxyphenyl)propionate] | – | – | – | – | 59.1 ± 17.5 | 73.6 | 8.5 ± 2.7 | – | – | – | – | –
4 | COC(=O)CC(c1ccc(OC)c(OC)c1)N1C(=O)c2cccc(NC(C)=O)c2C1=O (stereo not drawn) [Example 3, methyl 3-(4-acetamido-1,3-dioxoisoindolin-2-yl)-3-(3,4-dimethoxyphenyl)propionate] | – | – | – | – | 42.1 ± 19.3 | 83.7 | 6.0 ± 2.5 | – | – | – | – | Inhibitory Rate of Ear Swelling Degree ([2]; 1 mg/mouse on ear, 18th day, vs model and blank control): 37.8%; Weight Changes of Animals, Day 1 ([2]; Balb/c mice, 1 mg/mouse (50 mg/mL, 20 μL) on ear, Day 1, Mean ± S.D.): 20.6 ± 0.8 g; Inhibitory Rate of Ear Thickness ([2]; Balb/c mice, 1 mg/mouse on ear, 18th day, vs model and blank control): 34.0%; Ear Thickness Change, Day 1 ([2]; Balb/c mice, 1 mg/mouse on ear, Day 1, Mean ± S.D.): 0.21 ± 0.01 mm; Ear Thickness Change, Day 10 [2, 4]: 0.38 ± 0.10 mm; Weight Changes of Animals, Day 10 [2, 4]: 22.3 ± 1.4 g; Ear Thickness Change, Day 17 [2, 5]: 0.58 ± 0.09 mm; Weight Changes of Animals, Day 17 [2, 5]: 22.1 ± 1.8 g; Ear Thickness Change, Day 18 [2, 6]: 0.58 ± 0.10 mm; Weight Changes of Animals, Day 18 [2, 6]: 21.7 ± 1.8 g; Ear Thickness ([2]; Table 4, Balb/c mice, 1 mg/mouse on ear, 18th day): 0.58 ± 0.10 mm; Ear Swelling Degree ([2]; right minus left ear piece weight (8 mm punch), 1 mg/mouse on ear, 18th day): 15.7 ± 4.5 mg; IgE Concentration ([2]; serum, 1 mg/mouse on ear, 18th day): 6526.5 ± 2171.9 ng/mL; Inhibitory Rate of IgE Concentration ([2]; serum, 1 mg/mouse on ear, 18th day, vs model and blank control): 27.0%
5 | CCOc1cc(C(CC(=O)OC(C)C)N2C(=O)c3cccc(NC(C)=O)c3C2=O)ccc1OC (stereo not drawn) [Example 12, isopropyl 3-(4-acetamido-1,3-dioxoisoindolin-2-yl)-3-(3-ethoxy-4-methoxyphenyl)propionate] | – | – | – | – | 39.6 ± 14.0 | 84.8 | 5.8 ± 2.3 | – | – | – | – | –
6 | CCOc1cc(C(CC(=O)OC)N2C(=O)c3cccc(N(C)C(C)=O)c3C2=O)ccc1OC (stereo not drawn) [Example 24, methyl 3-(4-(N-methylacetamido)-1,3-dioxoisoindolin-2-yl)-3-(3-ethoxy-4-methoxyphenyl)propionate] | – | – | – | – | 43.0 ± 11.8 | 84.2 | 5.9 ± 1.7 | – | – | – | – | –
